Measurements from patent publication US9012365B2, “Compatibility agents for herbicidal formulations comprising 2,4-(Dichlorophenoxy) acetic acid salts” (priority 2006, dated 2015).

Legend:
Format in all cases: physicochemical
[1] = System appearance and pH after adding chemicals into System A
From the text: System appearance after adding various chemicals into “System A” which was 100 g of 3% 2,4-D DMA (50%)+90% water (1000 ppm)+7% Ammonium sulfate (40%).

[2] = Appearance of 10 g solution of (2.5 wt % ai 2,4-D DMA + tested chemical) after adding 40% AMS; details: for 0 gram Appearance / Addition Weight of 40% AMS: System was cloud after adding / Addition Weight of 40% AMS: System was clear after adding: 2.5 wt % ai 2,4-D DMA; for Addition Weight of 40% AMS: System was cloud after adding / Addition Weight of 40% AMS: System was clear after adding: 10 g solution; for Appearance, added 40% AMS wt into 10 g (2.5% 2,4-D + 0.13% tested chemical in DI water): at 0 g AMS added, or at all additions (All); for Added 40% AMS wt into 10 g (2.5% 2,4-D + 0.13% tested chemical in DI water), hazy / Added 40% AMS wt into 10 g (2.5% 2,4-D + 0.13% tested chemical in DI water), still clear: Table of Example 1
Description: In this example, the appearance of a 10 g solution of (2.5 wt % ai 2,4-D DMA+tested chemical) was evaluated after adding 40% AMS

[3] = as above; details: summary statement of the description
[4] = Solubility of tested chemical in 40% AMS (ammonium sulfate)
Description: (§1) In example 1, the electrolyte tolerance of 6 chemicals with and without the presence of 2,4-D amine was evaluated in ammonium sulfate system.

[5] = Electrolyte tolerance: 40% AMS added into 10 g 0.13% tested chemical in DI water; details: for Appearance, added 40% AMS wt into 10 g 0.13% tested chemical in DI water: at 0 g AMS added, or at all additions (All); for Solubility / compatibility in water or AMS solution (in words): without 2,4-D amine; for Added 40% AMS wt into 10 g 0.13% tested chemical in DI water, hazy / Added 40% AMS wt into 10 g 0.13% tested chemical in DI water, still clear: no 2,4-D
Description: as §1

[6] = Solubility of tested chemical in DI water
Description: as §1

[7] = Crystal formation of 2,4-D in 1000 ppm hard water + AMS after post-adding surfactant; details: for Appearance of sample: 0.069 g surfactant added to 3% 2,4-DMA (50%) + 90% water (1000 ppm hardness) + 7% AMS (40%), room temperature
From the text: FIG. 3 is a photograph illustrating the effect of various concentrations of cocoamine-2EO (“Coco-2”) and/or tallow-10EO (“Tallow-10”) on crystal formation of 2,4-D. (A) 0% Coco-2/0% Tallow-10. (B) 100% Coco-2/0% Tallow-10. (C) 45% Coco-2/55% Tallow-10. (D) 50% Coco-2/50% Tallow-10. (E) 55% Coco-2/45% Tallow-10.(F) 60% Coco-2/40% Tallow-10. (G) 0% Coco-2/100% Tallow-10.
In FIG. 3, sample (0:0) was 3% 2,4-DMA (50%)+90% water (1000 ppm hardness)+7% AMS (40%) and it readily formed crystals at room temperature.
The first sample, (0:0), on the left had no surfactant and it had about 15% crystal at the bottom. The rest of the samples had 0.069 g surfactant post-added to the first sample. […] Sample (0:100) was a little hazy with ˜5% crystal at bottom.

[8] = Compatibility of 2,4-D DMA premix with 28% N fertilizer (phase diagram, coarse particle formation)
Description: FIG. 2 is a photograph illustrating the effect of cocoamine-2EO methylchloride on coarse particle formation of 2,4-D ammonium salt. (A) 90% 28% N; 1% 2,4-D DMA; and 9% DI water. (B) 90% 28% N; 1% 2,4-D DMA; 5.5% DI water; and 3.5% Coco 2EO quat.
However, if 10% pre-mixed (8:2 water: 2,4-D DMA-50% ai) is added to 90% 28% N, a hazy system with coarse particles (2,4-D NH4 salt) will form in a few minutes at room temperature.

[9] = added into 100 g System A, added wt 0.815 g Ethoquad, 0.079 g NH4OH, 0.091 g dimethylamine, 1.07 g NaOH
[10] = added wt 1.35 grams into 100 g System A
[11] = 0.13 wt % a.i. of tested chemical, 0 gram 40% AMS
[12] = 0.13 wt % a.i. of tested chemical
[13] = 1.25 wt % a.i. of tested chemical

[Na+].[OH-] [10% NaOH, NaOH]
Appearance [1, 9]: clear | pH [1, 9]: 6 | Appearance [1, 10]: crystals re-appeared | pH [1, 10]: 10

CNC [Dimethylamine 40%, Dimethylamine]
Appearance [1, 9]: slightly hazy | pH [1, 9]: 7.8

CC(C)O [Isopropyl alcohol]
0 gram Appearance [2, 11]: Clear | Addition Weight of 40% AMS: System was cloud after adding [2, 12]: 0.461 grams | Suitability for increasing the solubility of 2,4-D non-amine salt (in words) [3]: ineffective

CN1CCCC1=O [Methyl-2-pyrrolidinone]
0 gram Appearance [2, 11]: Clear | Addition Weight of 40% AMS: System was clear after adding [2, 12]: 0.36 grams | Addition Weight of 40% AMS: System was cloud after adding [2, 12]: 0.567 grams | Suitability for increasing the solubility of 2,4-D non-amine salt (in words) [3]: ineffective

N.O [NH4OH 28-30%, NH4OH]
Appearance [1, 9]: hazy | pH [1, 9]: 8

CCCCC(CC)COC(=O)CC(C(=O)OCC(CC)CCCC)S(=O)(=O)[O-].[Na+] (stereo not shown) [Sodium dioctyl sulfonsuccinate]
0 gram Appearance [2, 11]: very cloudy | Addition Weight of 40% AMS: System was clear after adding [2, 12]: very cloudy | Addition Weight of 40% AMS: System was cloud after adding [2, 12]: 0 grams | Suitability for increasing the solubility of 2,4-D non-amine salt (in words) [3]: ineffective

CCCCCCCCO [octanol]
Suitability for increasing the solubility of 2,4-D non-amine salt (in words) [3]: ineffective

Castor oil ethoxylate-10EO
Solubility of testes chemical in 40% AMS [4]: <0.007% | Appearance, added 40% AMS wt into 10 g 0.13% tested chemical in DI water [5]: All hazy | Solubility / compatibility in water or AMS solution (in words) [5]: little compatibility | 0 gram Appearance [2, 11]: Haze | Addition Weight of 40% AMS: System was clear after adding [2, 12]: Haze | Addition Weight of 40% AMS: System was cloud after adding [2, 12]: 0 grams | Appearance, added 40% AMS wt into 10 g (2.5% 2,4-D + 0.13% tested chemical in DI water) [2]: All hazy | Solubility of tested chemical in DI Water [6]: <0.007%

Castor oil ethoxylate-36EO
Solubility of testes chemical in 40% AMS [4]: <0.036% | Appearance, added 40% AMS wt into 10 g 0.13% tested chemical in DI water [5]: clear | Added 40% AMS wt into 10 g 0.13% tested chemical in DI water, hazy [5]: 3.74 hazy g | Added 40% AMS wt into 10 g 0.13% tested chemical in DI water, still clear [5]: 3.57 g | 0 gram Appearance [2, 11]: Clear | Addition Weight of 40% AMS: System was clear after adding [2, 12]: 1.726 grams | Addition Weight of 40% AMS: System was cloud after adding [2, 12]: 2.141 grams | Added 40% AMS wt into 10 g (2.5% 2,4-D + 0.13% tested chemical in DI water), hazy [2]: 2.14 g | Added 40% AMS wt into 10 g (2.5% 2,4-D + 0.13% tested chemical in DI water), still clear [2]: 1.73 g | Appearance, added 40% AMS wt into 10 g (2.5% 2,4-D + 0.13% tested chemical in DI water) [2]: clear | AMS electrolyte tolerated relative to 55EO castor oil ethoxylate ([2]; in 2.5% 2,4-D DMA solution): 3 times | Solubility of tested chemical in DI Water [6]: >20%

Castor oil ethoxylate-55EO
Appearance, added 40% AMS wt into 10 g 0.13% tested chemical in DI water [5]: clear | Added 40% AMS wt into 10 g 0.13% tested chemical in DI water, hazy [5]: 3.74 hazy g | Added 40% AMS wt into 10 g 0.13% tested chemical in DI water, still clear [5]: 3.63 g | 0 gram Appearance [2, 11]: Clear | Addition Weight of 40% AMS: System was clear after adding [2, 12]: 0.476 grams | Addition Weight of 40% AMS: System was cloud after adding [2, 12]: 0.554 grams | Added 40% AMS wt into 10 g (2.5% 2,4-D + 0.13% tested chemical in DI water), hazy [2]: 0.55 g | Added 40% AMS wt into 10 g (2.5% 2,4-D + 0.13% tested chemical in DI water), still clear [2]: 0.48 g | Appearance, added 40% AMS wt into 10 g (2.5% 2,4-D + 0.13% tested chemical in DI water) [2]: clear | Solubility of tested chemical in DI Water [6]: >20%

Cocoamine-2EO
Appearance of sample [7]: hazy product without crystals | Appearance of sample ([7]; listed as Sample (100:0)): hazy sample with a little oily sediment at bottom | Solubility of testes chemical in 40% AMS [4]: <0.016% | Appearance, added 40% AMS wt into 10 g 0.13% tested chemical in DI water [5]: All hazy | Solubility / compatibility in water or AMS solution (in words) [5]: little compatibility | Compatibility in 2,4-D amine and AMS solution (in words) [2]: very good compatibility | 0 gram Appearance [2, 11]: Clear | Addition Weight of 40% AMS: System was clear after adding [2, 12]: 2.096 grams | Addition Weight of 40% AMS: System was cloud after adding [2, 12]: 2.264 grams | Added 40% AMS wt into 10 g (2.5% 2,4-D + 0.13% tested chemical in DI water), hazy [2]: 2.26 g | Added 40% AMS wt into 10 g (2.5% 2,4-D + 0.13% tested chemical in DI water), still clear [2]: 2.1 g | Appearance, added 40% AMS wt into 10 g (2.5% 2,4-D + 0.13% tested chemical in DI water) [2]: clear | Solubility of tested chemical in DI Water [6]: <0.016%

Cocoamine-2EO methylchloride
pH change of System A (in words) [1]: only changed slightly | Appearance [1, 9]: clear | pH [1, 9]: 5.2 | Solubility of testes chemical in 40% AMS [4]: All clear | Appearance, added 40% AMS wt into 10 g 0.13% tested chemical in DI water [5]: All clear | Solubility / compatibility in water or AMS solution (in words) [5]: excellent solubility in water and electrolyte tolerance | Spray solution obtained ([8]; 10% pre-mixed (8:2 Ethoquad C/12W-43.7%: 2,4-D DMA-50% ai) added to 90% 28% N): non-nozzle plugging spray solution | Effect on formation of coarse particles of the 2,4-D ammonium salt ([8]; 28% N fertilizer, room temperature, FIG. 2): prevent or minimize the formation of coarse particles | Compatibility in 2,4-D amine and AMS solution (in words) [2]: very good compatibility agent | 0 gram Appearance [2, 11]: Clear | Addition Weight of 40% AMS: System was clear after adding [2, 12]: 2.21 grams | Addition Weight of 40% AMS: System was cloud after adding [2, 12]: 2.511 grams | Added 40% AMS wt into 10 g (2.5% 2,4-D + 0.13% tested chemical in DI water), hazy [2]: 2.51 g hazy | Added 40% AMS wt into 10 g (2.5% 2,4-D + 0.13% tested chemical in DI water), still clear [2]: 2.21 g | Appearance, added 40% AMS wt into 10 g (2.5% 2,4-D + 0.13% tested chemical in DI water) [2]: clear | Solubility of tested chemical in DI Water [6]: All clear

Hexyl glycoside
Solubility of testes chemical in 40% AMS [4]: All clear | Appearance, added 40% AMS wt into 10 g 0.13% tested chemical in DI water [5]: All clear | Solubility / compatibility in water or AMS solution (in words) [5]: excellent solubility in water and electrolyte tolerance | Compatibility in 2,4-D amine and AMS solution (in words) [2]: poor compatibility agent | 0 gram Appearance [2, 11]: Clear | Addition Weight of 40% AMS: System was clear after adding [2, 12]: 0.179 grams | Addition Weight of 40% AMS: System was cloud after adding [2, 12]: 0.359 grams | Added 40% AMS wt into 10 g (2.5% 2,4-D + 0.13% tested chemical in DI water), hazy [2]: 0.36 g hazy | Added 40% AMS wt into 10 g (2.5% 2,4-D + 0.13% tested chemical in DI water), still clear [2]: 0.18 g | Appearance, added 40% AMS wt into 10 g (2.5% 2,4-D + 0.13% tested chemical in DI water) [2]: clear | Solubility of tested chemical in DI Water [6]: All clear

Tallowamine-10EO
Appearance of sample [7]: dissolved most crystals | Appearance of sample ([7]; listed as Sample (0:100)): a little hazy | Crystal at bottom ([7]; 0.069 g surfactant post-added to sample (0:0)): ~5% | 0 gram Appearance [2, 11]: Clear | Addition Weight of 40% AMS: System was clear after adding [2, 12]: 1.503 grams | Addition Weight of 40% AMS: System was cloud after adding [2, 12]: 1.717 grams

Trideceth-8
0 gram Appearance [2, 11]: Clear | Addition Weight of 40% AMS: System was clear after adding [2, 12]: 0.458 grams | Addition Weight of 40% AMS: System was cloud after adding [2, 12]: 0.684 grams

Trideceth-10
0 gram Appearance [2, 11]: Clear | Addition Weight of 40% AMS: System was clear after adding [2, 12]: 0.557 grams | Addition Weight of 40% AMS: System was cloud after adding [2, 12]: 0.685 grams

Trideceth-12
0 gram Appearance [2, 11]: Clear | Addition Weight of 40% AMS: System was clear after adding [2, 12]: 0.581 grams | Addition Weight of 40% AMS: System was cloud after adding [2, 12]: 0.688 grams

Triethyl ammonium phosphate
0 gram Appearance [2, 13]: Clear | Addition Weight of 40% AMS: System was clear after adding [2, 13]: 0.303 grams | Addition Weight of 40% AMS: System was cloud after adding [2, 13]: 0.535 grams

Tristyrylphenol + 15EO
0 gram Appearance [2, 11]: Clear | Addition Weight of 40% AMS: System was clear after adding [2, 12]: 2.102 grams | Addition Weight of 40% AMS: System was cloud after adding [2, 12]: 2.509 grams

Tristyrylphenol + 16EO
0 gram Appearance [2, 11]: Clear | Addition Weight of 40% AMS: System was clear after adding [2, 12]: 1.084 grams | Addition Weight of 40% AMS: System was cloud after adding [2, 12]: 2.235 grams

ethoxylated (2EO) cocoamide oxides
Suitability for increasing the solubility of 2,4-D non-amine salt (in words) [3]: ineffective
